Key:
Assay type in all cases: cell-based, human
[1] = tested on: PI3K-Akt signaling pathway; test: p-Akt/Akt protein level ratio normalized to β-actin in treated CMT1A iPSC-derived organoids; settings: Day 25, normalized to β-actin
CMT1A organoids [2] = test: g-ratio of myelinated axons by transmission electron microscopy in CMT1A organoids; settings: Day 25, TEM
CMT1A organoids [3] = test: Myelin periodic line distance (myelin compaction) by transmission electron microscopy in CMT1A organoids

Substance: shRNA-2: Short-hairpin RNA against human PMP22, region CDS (SEQ ID NO 10), Sigma Mission pLKO.1-library, lentivirally transduced (guide CCGGCCTGTTCTTCTGCCAACTCTTCTCGAGAAGAGTTGGCAGAAGAACAGGTTTTTG)
- p-Akt/Akt ratio [1]: reduced p-Akt/Akt ratio could be reversed
- g-ratio of axons (CMT1A organoids [2]): significantly increased the g-ratio
- myelin periodic line distance (myelin compaction) (CMT1A organoids [3]; high concentration (75 μL) of shRNA lentivirus): restored the myelin periodic line distance back to control levels
- myelin periodic line distance (myelin compaction) (CMT1A organoids [3]; low concentration (25 μL) of shRNA lentivirus): partially improved myelin compaction

Source: patent US20260258370A1, “METHOD FOR OBTAINING A NEUROMUSCULAR ORGANOID AND USE THEREOF” (Universiteit Antwerpen, priority 2021, published 2026)
